System: cells from rabbit cornea (ATCC CCL 60)
Test: Inhibition of intracellular accumulation of sorbitol in rabbit cornea cells
Assay type: cell-based
Conditions: Oryctolagus cuniculus, 16 h, read-out: INHIBITION, IC50 Sorbitol Accumulation
Experimental: For this assay, cells from rabbit cornea (ATCC CCL 60) were used as previously described^23. In summary, 10×10^6 cells were incubated in 2.5 ml of Minimum Essential Medium (JRH Biosciences), 0.5% foetal calf serum and 50 mM glucose for 16 h at 37° C. in presence of 5% CO2. Compounds under study were added in DMSO whose final concentration was 1%. The sorbitol accumulated in the cells was extracted by lysis with 8% perchloric acid and neutralised with 2N KOH^24. Sorbitol quantitation was carried out using a calorimetric test (D-Sorbitol/Xylitol, Boehringer Mannheim).

Row | IC50 [nM] | Structure (SMILES)
1 | 420 | Oc1c(F)c(F)c(-c2c(F)c(F)c(O)c(F)c2F)c(F)c1F [A-VII, 2,2′,3,3′,5,5′,6,6′-Octafluoro-4,4′-biphenol hydrate]

Same assay, conditions: Oryctolagus cuniculus; rabbit cornea cells, 50 mM glucose, 16 h at 37° C.; read-out: INHIBITION, IC50 Sorbitol Accumulation

Row | Structure (SMILES) | IC50 [nM]
2 | Oc1c(Oc2cc(Br)c(Br)c(Br)c2O)cc(Br)c(Br)c1Br [A-I, 3,3′,4,4′,5,5′-hexabromo-2,2′-dihydroxy-oxydiphenyl] | 1000
3 | Oc1c(Br)cc(Oc2cc(Br)c(Br)c(Br)c2O)c(O)c1Br [A-II, 3,3′,4′,5,5′-pentabromo-2,2′,4-trihydroxy-oxydiphenyl] | 8000
4 | Oc1c(Br)c(Br)c(-c2c(Br)c(Br)c(O)c(Br)c2Br)c(Br)c1Br [A-V, 2,2′,3,3′,5,5′,6,6′-Octabromo-4,4′-biphenol] | > 12000
5 | Oc1c(Cl)c(Cl)c(-c2c(Cl)c(Cl)c(O)c(Cl)c2Cl)c(Cl)c1Cl [A-VI, 2,2′,3,3′,5,5′,6,6′-Octachloro-4,4′-biphenol] | 220
6 | O=C(c1cc(Br)cc(Br)c1O)c1cc(Br)cc(Br)c1O [A-IV, 3,3′,5,5′-tetrabromo-2,2′-dihydroxybenzophenone] | 5000
7 | Oc1c(Oc2cc(Cl)c(Cl)c(Cl)c2O)cc(Cl)c(Cl)c1Cl [A-III, 3,3′,4,4′,5,5′-Hexachloro-2,2′-dihydroxy-oxydiphenyl] | 240

Biological target: T1, Human recombinant aldose reductase (Homo sapiens, UniProt P15121)
T1 construct: made in house; host or cells: Sf9 insect cells (Spodoptera frugiperda) infected with recombinant baculovirus AcAR
Test: Inhibition of human recombinant aldose reductase (NADPH disappearance at 340 nm)
Assay type: biochemical
Conditions: not given
Experimental: Human recombinant aldose reductase was obtained and purified as previously described^21 with slight modifications. Briefly, Sf9 insect cells (Spodoplera frugiperda, from Pharmingen) were cultured in Grace's medium (Gibco) at 27° C. Then, cultures were infected with the purified recombinant baculovirus AcAR^22 that was kindly provided by Dr. C. Nishimura (National Children's Medical Research Center, Tokyo, Japan). The enzyme released into the culture medium was purified by affinity chromatography (Matrex Gel Orange A, Amicon). This Aldose Reductase was kept at −20° C. in 50 mM sodium phosphate, pH 7.0, 5 mM dithiotreitol and 50% glycerol.
Recombinant Aldose Reductase activity was determined according to the method previously described^21. The assay was carried out in a 96-well microtiter plate, at 37° C. in 100 mM sodium phosphate buffer, pH 6.2, 400 mM (NH4)2SO4, 0.1 mM NADPH and 5 mU/ml recombinant aldose reductase (1 mU of activity was defined as a change in absorbance of 0.012 units per minute). The reaction was initiated by addition of 10 mM glyceraldehyde and the enzymatic activity measured as the NADPH disappearance at 340 nm in a plate reader (MR-5000, Dynatech). Compounds were dissolved in DMSO (1% final concentration).

Row | Structure (SMILES) | IC50 [µM]
8 | Oc1c(Br)cc(Oc2cc(Br)c(Br)c(Br)c2O)c(O)c1Br [A-II, 3,3′,4′,5,5′-pentabromo-2,2′,4-trihydroxy-oxydiphenyl] | 2
9 | Oc1c(Oc2cc(Cl)c(Cl)c(Cl)c2O)cc(Cl)c(Cl)c1Cl [A-III, 3,3′,4,4′,5,5′-Hexachloro-2,2′-dihydroxy-oxydiphenyl] | 5

Same assay, conditions: recombinant enzyme, 37° C., pH 6.2, 10 mM glyceraldehyde, 0.1 mM NADPH; read-out: INHIBITION, IC50 Aldose Reductase

Row | Structure (SMILES) | IC50 [µM]
10 | Oc1c(F)c(F)c(-c2c(F)c(F)c(O)c(F)c2F)c(F)c1F [A-VII, 2,2′,3,3′,5,5′,6,6′-Octafluoro-4,4′-biphenol hydrate] | 0.22
11 | Oc1c(Oc2cc(Br)c(Br)c(Br)c2O)cc(Br)c(Br)c1Br [A-I, 3,3′,4,4′,5,5′-hexabromo-2,2′-dihydroxy-oxydiphenyl] | 4
12 | Oc1c(Br)c(Br)c(-c2c(Br)c(Br)c(O)c(Br)c2Br)c(Br)c1Br [A-V, 2,2′,3,3′,5,5′,6,6′-Octabromo-4,4′-biphenol] | 1
13 | Oc1c(Cl)c(Cl)c(-c2c(Cl)c(Cl)c(O)c(Cl)c2Cl)c(Cl)c1Cl [A-VI, 2,2′,3,3′,5,5′,6,6′-Octachloro-4,4′-biphenol] | 11
14 | O=C(c1cc(Br)cc(Br)c1O)c1cc(Br)cc(Br)c1O [A-IV, 3,3′,5,5′-tetrabromo-2,2′-dihydroxybenzophenone] | 4

System: not given
Test: not given
Conditions: not given

Row | Structure (SMILES) | melting point [°C]
15 | Oc1c(Oc2cc(Br)c(Br)c(Br)c2O)cc(Br)c(Br)c1Br [A-I, 3,3′,4,4′,5,5′-hexabromo-2,2′-dihydroxy-oxydiphenyl] | 188 to 190
16 | Oc1c(Br)cc(Oc2cc(Br)c(Br)c(Br)c2O)c(O)c1Br [A-II, 3,3′,4′,5,5′-pentabromo-2,2′,4-trihydroxy-oxydiphenyl] | 207 to 209
17 | Oc1c(Br)c(Br)c(-c2c(Br)c(Br)c(O)c(Br)c2Br)c(Br)c1Br [A-V, 2,2′,3,3′,5,5′,6,6′-Octabromo-4,4′-biphenol] | 282
18 | Oc1c(Cl)c(Cl)c(-c2c(Cl)c(Cl)c(O)c(Cl)c2Cl)c(Cl)c1Cl [A-VI, 2,2′,3,3′,5,5′,6,6′-Octachloro-4,4′-biphenol] | 94 to 96
